Experimental findings from patent US8372863B2, “Tetrahydro-1H-pyrrolo fused pyridones” (Merck Sharp & Dohme Corp., priority 2008, dated 2013) are described below.

Each structure is given as a SMILES string. pIC50: −log10 of the molar value. Counter-ions that a name gives are not always drawn. Bounds are passed on as bounds.

The pIC50 is the negative decadic logarithm of the IC50, by convention in mol/L.

This assay deals with PHD2 (Homo sapiens, UniProt Q9GZT9). Kind of assay: PHD2 / HIF-1α peptide hydroxylation assay with time resolved fluorescence readout (PHD2 binding activity). In kind it is biochemical. The note with it: FLAG-tagged full length PHD2; 0.2 μM 2-oxoglutarate, 0.5 μM HIF-1α peptide; read-out: PHD2 Activity (PHD2 binding activity expressed as IC50). Here is the method: After a 30 min preincubation at room temperature, the enzymatic reactions were initiated by the addition of 4 μL of substrates (final concentrations of 0.2 μM 2-oxoglutarate and 0.5 μM HIF-1α peptide biotinyl-DLDLEMLAPYIPMDDDFQL). After 2 hr at room temperature, the reactions were terminated and signals were developed by the addition of a 25 μL quench/detection mix to a final concentration of 1 mM ortho-phenanthroline, 0.1 mM EDTA, 0.5 nM anti-(His)6 LANCE reagent (Perkin-Elmer Life Sciences), 100 nM AF647-labeled streptavidin (Invitrogen), and 2 μg/ml (His)6-VHL complex (S. Tan(2001) Protein Expr. Purif 21, 224-234). The ratio of time resolved fluorescence signals at 665 and 620 nm was determined, and percent inhibition was calculated relative to an uninhibited control sample run in parallel.
Chain of PHD2 (Q9GZT9 whole entry): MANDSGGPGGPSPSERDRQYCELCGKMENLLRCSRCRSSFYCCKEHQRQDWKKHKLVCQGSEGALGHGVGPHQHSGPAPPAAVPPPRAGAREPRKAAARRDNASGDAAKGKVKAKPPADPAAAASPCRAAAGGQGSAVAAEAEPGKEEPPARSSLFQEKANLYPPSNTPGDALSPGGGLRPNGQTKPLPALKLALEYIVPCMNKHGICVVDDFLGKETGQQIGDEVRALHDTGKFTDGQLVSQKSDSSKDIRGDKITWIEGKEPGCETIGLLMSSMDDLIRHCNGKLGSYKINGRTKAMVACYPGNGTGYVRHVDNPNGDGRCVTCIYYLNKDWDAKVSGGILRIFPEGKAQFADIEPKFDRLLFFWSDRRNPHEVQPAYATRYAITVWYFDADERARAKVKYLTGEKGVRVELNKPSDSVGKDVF
For `O=C(O)CNC(=O)c1c(O)c2c(n(Cc3cccc(-c4cccnc4)c3)c1=O)CN(C(=O)c1cscn1)C2` [Example 52, N-{[4-hydroxy-2-oxo-1-(3-pyridin-3-ylbenzyl)-6-(1,3-thiazol-3-ium-4-ylcarbonyl)-2,5,6,7-tetrahydro-1H-pyrrolo[3,4-b]pyridin-3-yl]carbonyl}glycine trifluoroacetate], the pIC50 is greater than 8.00.
For `O=C(O)CNC(=O)c1c(O)c2c(n(Cc3cccc(-c4ccc(F)nc4)c3)c1=O)CN(C(=O)c1cscn1)C2` [Example 53, N-{[1-[3-(6-fluoropyridin-3-yl)benzyl]-4-hydroxy-2-oxo-6-(1,3-thiazo1-4-ylcarbonyl)-2,5,6,7-tetrahydro-1H-pyrrolo[3,4-b]pyridin-3-yl]carbonyl}glycine] the value was greater than 8.00; for `O=C(O)CNC(=O)c1c(O)c2c(n(Cc3ccccc3)c1=O)CN(C(=O)c1cscn1)C2` [Example 54, N-{[1-benzyl-4-hydroxy-2-oxo-6-(1,3-thiazol-4-ylcarbonyl)-2,5,6,7-tetrahydro-1H-pyrrolo[3,4-b]pyridin-3-yl]carbonyl}glycine], greater than 8.00.
With `N#Cc1ccccc1Cn1c2c(c(O)c(C(=O)NCC(=O)O)c1=O)CN(C(=O)c1cscn1)C2` [Example 56, N-{[1-(2-cyanobenzyl)-4-hydroxy-2-oxo-6-(1,3-thiazol-4-ylcarbonyl)-2,5,6,7-tetrahydro-1H-pyrrolo[3,4-b]pyridin-3-yl]carbonyl}glycine], the pIC50 is greater than 8.00.
